Columns and labels:
[1] = tested on: NEO2A (RNA, aptamer) CACUGCAGUCCGAAAAGGGCCAGUG; experiment: ITC; conditions: 13.5 mM NaCl, 150 mM KCl, 0.12 mM MgCl2, 0.1 mM MgSO4, 120 nM CaCl2, Buffer A: 20 mM HEPES, pH 7.3, 25 °C
[2] = tested on: NEO2AΔA (RNA, aptamer) CACUGCAGUCCGAAAGGGCCAGUG; experiment: ITC; conditions: 13.5 mM NaCl, 150 mM KCl, 0.12 mM MgCl2, 0.1 mM MgSO4, 120 nM CaCl2; Buffer A: 20 mM HEPES, phosphate, pH 7.3, 25 °C
[3] = tested on: 2AP16NEO2A (RNA, aptamer, 2-aminopurine at 16) CACUGCAGUCCGAAAAGGGCCAGUG; experiment: ITC; conditions: 13.5 mM NaCl, 150 mM KCl, 0.12 mM MgCl2, 0.1 mM MgSO4, 120 nM CaCl2; Buffer A, pH 7.3, 25 °C; affinity 40% of unsubstituted NEO2A
[4] = tested on: 2AP7NEO2A (RNA, aptamer, 2-aminopurine at 7) CACUGCAGUCCGAAAAGGGCCAGUG; experiment: 2-aminopurine fluorescence; conditions: buffer A or F; 10 μM ligand, 1 μM RNA; fluorescence increase
[5] = tested on: 2AP13NEO2A (RNA, aptamer, 2-aminopurine at 13) CACUGCAGUCCGAAAAGGGCCAGUG; experiment: 2-aminopurine fluorescence; conditions: buffer A or F; 10 μM ligand, 1 μM RNA; fluorescence increase
[6] = tested on: 2AP14NEO2A (RNA, aptamer, 2-aminopurine at 14) CACUGCAGUCCGAAAAGGGCCAGUG; experiment: 2-aminopurine fluorescence; conditions: buffer A or F; 10 μM ligand, 1 μM RNA; fluorescence decrease

Row | Kd ([1]; phosphate) [µM] | Kd [2] [µM] | Compound | further results
1 | 0.25 ± 0.050 | 0.17 ± 0.031 | NC[C@@H]1O[C@H](O[C@H]2[C@@H](O)[C@H](O[C@@H]3[C@@H](O)[C@H](N)C[C@H](N)[C@H]3O[C@H]3O[C@H](CN)[C@@H](O)[C@H](O)[C@H]3N)O[C@@H]2CO)[C@H](N)[C@@H](O)[C@@H]1O | binding [3]: yes; binding [4]: yes; binding [5]: yes; binding [6]: yes
2 | 1.6 ± 0.26 | – | NC[C@@H]1O[C@H](O[C@H]2[C@@H](O)[C@H](O[C@@H]3[C@@H](O)[C@H](N)C[C@H](N)[C@H]3O[C@H]3O[C@H](CO)[C@@H](O)[C@H](O)[C@H]3N)O[C@@H]2CO)[C@H](N)[C@@H](O)[C@@H]1O | binding [2]: no
3 | 0.25 ± 0.073 | – | NC[C@H]1O[C@H](O[C@H]2[C@H](O)[C@@H](O[C@H]3O[C@H](CO)[C@@H](O)[C@H](N)[C@H]3O)[C@H](N)C[C@@H]2N)[C@H](N)[C@@H](O)[C@@H]1O | –
4 | – | 2.3 ± 0.0015 | NC[C@H]1O[C@H](O[C@H]2[C@H](O[C@@H]3O[C@H](CO)[C@@H](O)[C@H]3O)[C@@H](O)[C@H](N)C[C@@H]2N)[C@H](N)[C@@H](O)[C@@H]1O | Kd ([1]; Table S4 prints 0.4 ± 0.075): 0.28 ± 0.066 µM

The next lines start with the compound.

Row | Compound | Kd ([1]; phosphate) [µM] | Kd [2] [µM] | further results
5 | CCN[C@@H]1C[C@H](N)[C@@H](O[C@H]2OC(CN)=CC[C@H]2N)[C@H](O)[C@H]1O[C@H]1OC[C@](C)(O)[C@H](NC)[C@H]1O | > 100 | – | –
6 | CN[C@@H]1[C@@H](O)[C@@H](O[C@@H]2[C@@H](O)[C@H](O[C@H]3OC(CN)=CC[C@H]3N)[C@@H](N)C[C@H]2N)OC[C@]1(C)O | 4.9 ± 1.2 | 4.9 ± 1.0 | –
7 | CN[C@@H]1[C@@H](O)[C@@H](O[C@@H]2[C@@H](O)[C@H](O[C@H]3O[C@H]([C@@H](C)O)[C@@H](O)[C@H](O)[C@H]3N)[C@@H](N)C[C@H]2N)OC[C@]1(C)O | > 100 | – | –
8 | NCC[C@H](O)C(=O)N[C@@H]1C[C@H](N)[C@@H](O[C@H]2O[C@H](CN)[C@@H](O)[C@H](O)[C@H]2O)[C@H](O)[C@H]1O[C@H]1O[C@H](CO)[C@@H](O)[C@H](N)[C@H]1O | > 100 | – | –
9 | NC[C@H]1O[C@H](O[C@H]2[C@H](O)[C@@H](O[C@H]3O[C@H](CO)[C@@H](O)[C@H](N)[C@H]3O)[C@H](N)C[C@@H]2N)[C@H](N)C[C@@H]1O | 0.40 ± 0.051 | 6.3 ± 0.84 | –
10 | NC[C@H]1O[C@H](O[C@H]2[C@H](O)[C@@H](O[C@H]3O[C@H](CO)[C@@H](O)[C@H](N)[C@H]3O)[C@H](N)C[C@@H]2N)[C@H](O)[C@@H](O)[C@@H]1O | 26 ± 3.0 | – | –

Reference: publication PMC6943582 (2019)
